Measurements as given in ChEMBL document CHEMBL3046407, “Toxicity of monoterpenes against larvae and adults of Colorado potato beetle, Leptinotarsa decemlineata Say (Coleoptera: Chrysomelidae)” (2007).

Legend:
Assay type in all cases: functional
[1] = system: Leptinotarsa decemlineata; experiment: Insecticidal activity against third-instar larval stage of Leptinotarsa decemlineata infested potato leaves assessed as mortality at 10 ul after 24 hr relative to control
[2] = system: Leptinotarsa decemlineata; experiment: Insecticidal activity against third-instar larval stage of Leptinotarsa decemlineata infested potato leaves assessed as mortality at 10 ul after 48 hr (reference value: 3.3 +/- 3.3%)
[3] = system: Leptinotarsa decemlineata; experiment: Insecticidal activity against adult Leptinotarsa decemlineata infested potato leaves assessed as mortality at 20 ul after 48 hr relative to control
[4] = system: Leptinotarsa decemlineata; experiment: Insecticidal activity against third-instar larval stage of Leptinotarsa decemlineata infested potato leaves assessed as mortality at 20 ul after 24 hr relative to control
[5] = system: Leptinotarsa decemlineata; experiment: Insecticidal activity against first-instar larval stage of Leptinotarsa decemlineata infested potato leaves assessed as mortality at 20 ul after 24 hr relative to control
[6] = system: Leptinotarsa decemlineata; experiment: Insecticidal activity against first-instar larval stage of Leptinotarsa decemlineata infested potato leaves assessed as mortality at 10 ul after 24 hr relative to control
[7] = system: Leptinotarsa decemlineata; experiment: Insecticidal activity against first-instar larval stage of Leptinotarsa decemlineata infested potato leaves assessed as mortality at 20 ul after 96 hr relative to control
[8] = system: Leptinotarsa decemlineata; experiment: Insecticidal activity against first-instar larval stage of Leptinotarsa decemlineata infested potato leaves assessed as mortality at 10 ul after 12 hr relative to control
[9] = system: Leptinotarsa decemlineata; experiment: Insecticidal activity against third-instar larval stage of Leptinotarsa decemlineata infested potato leaves assessed as mortality at 20 ul after 96 hr (reference value: 3.3 +/- 3.3%)
[10] = system: Leptinotarsa decemlineata; experiment: Insecticidal activity against adult Leptinotarsa decemlineata infested potato leaves assessed as mortality at 20 ul after 12 hr relative to control
[11] = system: Leptinotarsa decemlineata; experiment: Insecticidal activity against adult Leptinotarsa decemlineata infested potato leaves assessed as mortality at 20 ul after 96 hr relative to control
[12] = system: Leptinotarsa decemlineata; experiment: Insecticidal activity against second-instar larval stage of Leptinotarsa decemlineata infested potato leaves assessed as mortality at 20 ul after 24 hr (reference value: 3.3 +/- 3.3%)
[13] = system: Leptinotarsa decemlineata; experiment: Insecticidal activity against adult Leptinotarsa decemlineata infested potato leaves assessed as mortality at 10 ul after 24 hr relative to control
[14] = system: Leptinotarsa decemlineata; experiment: Insecticidal activity against second-instar larval stage of Leptinotarsa decemlineata infested potato leaves assessed as mortality at 10 ul after 24 hr (reference value: 3.3 +/- 3.3%)
[15] = system: Leptinotarsa decemlineata; experiment: Insecticidal activity against second-instar larval stage of Leptinotarsa decemlineata infested potato leaves assessed as mortality at 20 ul after 96 hr (reference value: 3.3 +/- 3.3%)
[16] = system: Leptinotarsa decemlineata; experiment: Insecticidal activity against first-instar larval stage of Leptinotarsa decemlineata infested potato leaves assessed as mortality at 10 ul after 48 hr relative to control
[17] = system: Leptinotarsa decemlineata; experiment: Insecticidal activity against second-instar larval stage of Leptinotarsa decemlineata infested potato leaves assessed as mortality at 20 ul after 48 hr (reference value: 3.3 +/- 3.3%)
[18] = system: Leptinotarsa decemlineata; experiment: Insecticidal activity against first-instar larval stage of Leptinotarsa decemlineata infested potato leaves assessed as mortality at 20 ul after 48 hr relative to control
[19] = system: Leptinotarsa decemlineata; experiment: Insecticidal activity against second-instar larval stage of Leptinotarsa decemlineata infested potato leaves assessed as mortality at 10 ul after 12 hr relative to control
[20] = system: Leptinotarsa decemlineata; experiment: Insecticidal activity against third-instar larval stage of Leptinotarsa decemlineata infested potato leaves assessed as mortality at 10 ul after 96 hr (reference value: 3.3 +/- 3.3%)
[21] = system: Leptinotarsa decemlineata; experiment: Insecticidal activity against adult Leptinotarsa decemlineata infested potato leaves assessed as mortality at 20 ul after 24 hr relative to control
[22] = system: Leptinotarsa decemlineata; experiment: Insecticidal activity against third-instar larval stage of Leptinotarsa decemlineata infested potato leaves assessed as mortality at 20 ul after 48 hr (reference value: 3.3 +/- 3.3%)
[23] = system: Leptinotarsa decemlineata; experiment: Insecticidal activity against first-instar larval stage of Leptinotarsa decemlineata infested potato leaves assessed as mortality at 10 ul after 96 hr relative to control
[24] = system: Leptinotarsa decemlineata; experiment: Insecticidal activity against adult Leptinotarsa decemlineata infested potato leaves assessed as mortality at 10 ul after 48 hr relative to control
[25] = system: Leptinotarsa decemlineata; experiment: Insecticidal activity against second-instar larval stage of Leptinotarsa decemlineata infested potato leaves assessed as mortality at 10 ul after 96 hr (reference value: 3.3 +/- 3.3%)
[26] = system: Leptinotarsa decemlineata; experiment: Insecticidal activity against third-instar larval stage of Leptinotarsa decemlineata infested potato leaves assessed as mortality at 20 ul after 12 hr relative to control
[27] = system: Leptinotarsa decemlineata; experiment: Insecticidal activity against adult Leptinotarsa decemlineata infested potato leaves assessed as mortality at 10 ul after 96 hr relative to control
[28] = system: Leptinotarsa decemlineata; experiment: Insecticidal activity against second-instar larval stage of Leptinotarsa decemlineata infested potato leaves assessed as mortality at 20 ul after 12 hr relative to control
[29] = system: Leptinotarsa decemlineata; experiment: Insecticidal activity against first-instar larval stage of Leptinotarsa decemlineata infested potato leaves assessed as mortality at 20 ul after 12 hr relative to control
[30] = system: Leptinotarsa decemlineata; experiment: Insecticidal activity against adult Leptinotarsa decemlineata infested potato leaves assessed as mortality at 10 ul after 12 hr relative to control
[31] = system: Leptinotarsa decemlineata; experiment: Insecticidal activity against second-instar larval stage of Leptinotarsa decemlineata infested potato leaves assessed as mortality at 10 ul after 48 hr (reference value: 3.3 +/- 3.3%)
[32] = system: Leptinotarsa decemlineata; experiment: Insecticidal activity against third-instar larval stage of Leptinotarsa decemlineata infested potato leaves assessed as mortality at 10 ul after 12 hr relative to control

SMILES	mortality [1] [%]	mortality [2] [%]	mortality [3] [%]	mortality [4] [%]	mortality [5] [%]	mortality [6] [%]	mortality [7] [%]	mortality [8] [%]	mortality [9] [%]	mortality [10] [%]	mortality [11] [%]	mortality [12] [%]	mortality [13] [%]	mortality [14] [%]	mortality [15] [%]	mortality [16] [%]	mortality [17] [%]	mortality [18] [%]	mortality [19] [%]	mortality [20] [%]	also measured
CC1=CCC(C(C)C)=CC1 [GAMMA-TERPINENE]	26.7	30	100	16.7	100	100	100	43.3	50	46.7	100	100	40	100	100	100	100	100	90	33.3	mortality [21]: 96.7%; mortality [22]: 33.3%; mortality [23]: 100%; mortality [24]: 66.7%; mortality [25]: 100%; mortality [26]: 10%; mortality [27]: 90%; mortality [28]: 100%; mortality [29]: 100%; mortality [30]: 20%; mortality [31]: 100%; mortality [32]: 16.7%
CC1=CCC2C(C1)C2(C)C (stereo not given) [CARENE]	100	100	86.7	100	70	63.3	86.7	36.7	100	50	86.7	86.7	73.3	73.3	93.3	86.7	93.3	86.7	46.7	100	mortality [21]: 80%; mortality [22]: 100%; mortality [23]: 100%; mortality [24]: 80%; mortality [25]: 100%; mortality [26]: 100%; mortality [27]: 80%; mortality [28]: 76.7%; mortality [29]: 56.7%; mortality [30]: 36.7%; mortality [31]: 100%; mortality [32]: 100%
CC1=CCC(O)(C(C)C)CC1 (stereo not given) [TERPINEOL]	16.7	23.3	80	23.3	86.7	40	100	0	40	16.7	100	100	76.7	83.3	100	73.3	100	100	33.3	23.3	mortality [21]: 43.3%; mortality [22]: 26.7%; mortality [23]: 100%; mortality [24]: 93.3%; mortality [25]: 100%; mortality [26]: 3.3%; mortality [27]: 100%; mortality [28]: 60%; mortality [29]: 40%; mortality [30]: 3.3%; mortality [31]: 100%; mortality [32]: 6.7%
CC(=O)OC/C=C(/C)CCC=C(C)C [NERYL ACETATE]	0	6.7	13.3	23.3	10	0	10	0	43.3	3.3	30	3.3	20	0	6.7	0	3.3	10	0	10	mortality [21]: 10%; mortality [22]: 33.3%; mortality [23]: 0%; mortality [24]: 26.7%; mortality [25]: 0%; mortality [26]: 23.3%; mortality [27]: 70%; mortality [28]: 3.3%; mortality [29]: 6.7%; mortality [30]: 0%; mortality [31]: 0%; mortality [32]: 0%
C=C(C)C1CCC2(C)OC2C1 (stereo not given) [LIMONENE OXIDE]	23.3	43.3	40	33.3	93.3	53.3	100	26.7	56.7	16.7	56.7	93.3	16.7	73.3	96.7	80	93.3	100	30	46.7	mortality [21]: 20%; mortality [22]: 46.7%; mortality [23]: 93.3%; mortality [24]: 20%; mortality [25]: 90%; mortality [26]: 13.3%; mortality [27]: 30%; mortality [28]: 60%; mortality [29]: 70%; mortality [30]: 10%; mortality [31]: 83.3%; mortality [32]: 13.3%
